The record followed here is patent publication US9315438B2, “Optically pure benzyl-4-chlorophenyl-C-glucoside derivative” (XUANZHU PHARMA CO., LTD., priority 2014, dated 2016).

A short description of data set [1]: Rat in-vivo pharmacokinetic assay (PO). The conditions noted are these: male SD rats, PO 10 mg/kg, plasma. On the procedure: Assay animals: 6-8 weeks aged male SD rats (purchased from Vital River Laboratories), 3 rats per compound, weighing 200-240 g.
Solvent: 0.5% MC (methyl cellulose) solution+0.1% SDS (sodium dodecyl sulfate).
Intragastric administration (PO): See Table 2
Blood collection: each of 200 μL whole blood were collected at 0.17 hr, 0.5 hr, 1 hr, 2 hr, 4 hr, 6 hr, 8 hr, 24 hr, 30 hr, 48 hr, 54 hr and 72 hr. The collected blood samples were centrifuged at 4° C. at 8000 rpm in a low temperature high-speed centrifuge (5415R, Eppendorf) for 6 mins to separate the blood plasma. The separated plasma was preserved at −80° C. in a refrigerator.
20 μL of the plasma was carefully taken out, to which was added 600 µL of an internal standard MTBE (methyl tert-butyl ether) solution (containing internal standard dapagliflozin 25 ng/ml). The plasma was subjected to a vortex at 1500 rpm for 10 mins, and then centrifuged at 12000 rpm for 5 mins. 4004 of the supernatant was taken and blow-dried with nitrogen gas. The dried substance was redissolved with 2004 of a redissolving solution (acetonitrile:water=7:3). The solution was subjected to a vortex for 10 mins, and analyzed with LC-MS/MS (API4000, Applied Biosystems).

For another data set, the target named is human SGLT-2 (Homo sapiens (Human), UniProt P31639). Kind of data set: In-vitro [14C]-AMG uptake inhibition assay in CHO cells stably expressing human SGLT-2. It counts as cell-based. Conditions: for Selectivity: SGLT-1 IC50 / SGLT-2 IC50. On the procedure:
In the in-vitro assay for the pharmacological activities of the present compounds, the human SGLT-2 and SGLT-1 sequences were transfected to Chinese hamster ovary cells to express stably. By measuring inhibition of the sodium dependent adsorption of [^14C]-labeled […]-D-glucopyranoside (AMG) into the cells, the half-inhibition concentration IC50 was determined.
Buffer A (KRH—Na^+): 120 mM NaCl, 4.7 mM KCl, 1.2 mM MgCl2, 2.2 mM CaCl2, 10 mM HEPES (PH 7.4 with 1 mM Tris).
Buffer A− (KRH—NMG): 120 mM NMG, 4.7 mM KCl, 1.2 mM MgCl2, 2.2 mM CaCl2, 10 mM HEPES (PH 7.4 with 1 mM Tris).
Buffer D: 120 mM NaCl, 4.7 mM KCl, 1.2 mM MgCl2, 2.2 mM CaCl2, 10 mM HEPES, 0.5 mM phlorizin (PH 7.4 with 1 mM Tris).
(§1) Assay method: Human SGLT-2 and SGLT-1 sequences were stably expressed in the CHO cells. The cell culture was conducted in a 96-well plate for 12 hr. The plate was washed with KRH—Na+(Buffer A) or KRH-NMG (Buffer A−) buffering solution for three times, 2004/well. Then the plate was added with a buffering solution containing Buffer A or Buffer A− plus [^14C]-AMG (10 μCi/mL), 100 μL/well. The cell culture was conducted at 37° C. for 1 hr. Then, 100 μL of an ice pre-cooled buffering solution (Buffer D) was added to terminate the assay. The plate was washed for five times. Then an ice pre-cooled lytic buffering solution (100 mM NaOH solution) was added, 20 μL/well, and the centrifugation at 600 rpm was conducted for 5 mins. Then Microscint 40 solution was added, 80 μl/well, and the centrifugation at 600 rpm was conducted for 5 mins. Finally, the radioactivity of [^14C]-AMG was detected with MicroBeta Trilux (purchased from PerkinElmer Co. Ltd.) according to the scintillation counting method, and the half-inhibition concentration IC50 was calculated.

Another data set addresses human SGLT-1 (Homo sapiens (Human), UniProt P13866). In words: In-vitro [14C]-AMG uptake inhibition assay in CHO cells stably expressing human SGLT-1. It counts as cell-based. Conditions: human SGLT-1 in CHO cells. As for the experimental part:
as §1, with “In the in-vitro assay for the pharmacological activities of the present compounds, the human SGLT-2 and SGLT-1 sequences were transfected to Chinese hamster ovary cells to express stably. By measuring inhibition of the sodium dependent adsorption of [^14C]-labeled […]-D-glucopyranoside (AMG) into the cells, the half-inhibition concentration IC50 was determined. Buffer A (KRH—Na^+): 120 mM NaCl, 4.7 mM KCl, 1.2 mM MgCl2, 2.2 mM CaCl2, 10 mM HEPES (PH 7.4 with 1 mM Tris). Buffer A− (KRH—NMG): 120 mM NMG, 4.7 mM KCl, 1.2 mM MgCl2, 2.2 mM CaCl2, 10 mM HEPES (PH 7.4 with 1 mM Tris). Buffer D: 120 mM NaCl, 4.7 mM KCl, 1.2 mM MgCl2, 2.2 mM CaCl2, 10 mM HEPES, 0.5 mM phlorizin (PH 7.4 with 1 mM Tris). Assay” for “Assay”

Chain of human SGLT-2 (P31639 whole entry): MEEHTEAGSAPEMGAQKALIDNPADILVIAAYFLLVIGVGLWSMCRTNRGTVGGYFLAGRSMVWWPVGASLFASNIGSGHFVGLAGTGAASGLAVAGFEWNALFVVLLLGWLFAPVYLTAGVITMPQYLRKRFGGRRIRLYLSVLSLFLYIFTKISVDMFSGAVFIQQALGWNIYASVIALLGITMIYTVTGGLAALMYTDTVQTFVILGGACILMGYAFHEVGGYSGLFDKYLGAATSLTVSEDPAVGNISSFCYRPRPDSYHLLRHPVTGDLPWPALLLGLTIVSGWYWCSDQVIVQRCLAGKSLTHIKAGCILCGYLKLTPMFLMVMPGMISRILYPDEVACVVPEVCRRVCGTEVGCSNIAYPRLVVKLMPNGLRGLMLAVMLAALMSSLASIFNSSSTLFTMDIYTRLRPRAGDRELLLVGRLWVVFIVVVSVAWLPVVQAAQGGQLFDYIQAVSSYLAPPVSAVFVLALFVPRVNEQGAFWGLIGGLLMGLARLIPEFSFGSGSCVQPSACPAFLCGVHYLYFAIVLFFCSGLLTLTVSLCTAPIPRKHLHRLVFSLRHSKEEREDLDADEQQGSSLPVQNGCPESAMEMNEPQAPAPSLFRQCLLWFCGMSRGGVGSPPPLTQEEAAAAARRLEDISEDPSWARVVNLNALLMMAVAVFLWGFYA
Chain of human SGLT-1 (P13866 whole entry): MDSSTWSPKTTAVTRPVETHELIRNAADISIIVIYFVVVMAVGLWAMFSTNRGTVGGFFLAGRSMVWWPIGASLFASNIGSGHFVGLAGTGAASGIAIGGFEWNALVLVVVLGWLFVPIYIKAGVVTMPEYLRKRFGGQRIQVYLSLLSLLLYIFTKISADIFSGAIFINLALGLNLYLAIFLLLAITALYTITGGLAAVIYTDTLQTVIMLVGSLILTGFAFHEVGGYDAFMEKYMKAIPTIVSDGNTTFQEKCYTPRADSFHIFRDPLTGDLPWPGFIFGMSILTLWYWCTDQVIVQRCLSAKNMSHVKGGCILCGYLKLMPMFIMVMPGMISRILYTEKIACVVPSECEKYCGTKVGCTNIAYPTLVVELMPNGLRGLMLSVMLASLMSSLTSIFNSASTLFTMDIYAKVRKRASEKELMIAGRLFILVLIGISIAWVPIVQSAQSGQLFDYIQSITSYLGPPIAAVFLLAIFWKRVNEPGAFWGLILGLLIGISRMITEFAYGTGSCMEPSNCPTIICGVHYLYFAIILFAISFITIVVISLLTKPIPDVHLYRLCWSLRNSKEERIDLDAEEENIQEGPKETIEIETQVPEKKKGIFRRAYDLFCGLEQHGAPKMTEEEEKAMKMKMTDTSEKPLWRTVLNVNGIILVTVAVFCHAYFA

What is called AUC(0-inf) is the area under the concentration-time curve extrapolated to infinity. A high value points to high exposure. As usually defined, the AUC(0-t) is the area under the concentration-time curve up to a stated or last time point. Low values mean less exposure, high ones more exposure. One may read the Cmax as the highest concentration seen after dosing. Broadly, the Tmax is the time from dosing to the highest level. The term half-life denotes how long it takes for the measured level to halve. What is called IC50 is the concentration that gives 50% inhibition. A high value points to weaker potency. As to `OC[C@H]1O[C@@H](c2ccc(Cl)c(Cc3ccc(O[C@H]4C[C@@H]5C[C@@H]5C4)cc3)c2)[C@H](O)[C@@H](O)[C@@H]1O` [Compound represented by formula (II), (2S,3R,4R,5S,6R)-2-(3-(4-(((1R,3s,5S)-bicyclo[3.1.0]hexan-3-yl)oxy)benzyl)-4-chlorophenyl)-6-(hydroxymethyl)tetrahydro-2H-pyran-3,4,5-triol], in data set [1], the total exposure AUC(0-inf) stood at 92100 ng·h/mL, the AUC(0-t) is 92100 ng·h/mL, the concentration peaked (Cmax) at 6380 ng/mL and the Tmax worked out at 1 h. This compound also had a half-life in data set [1] of 8.98 h. Moreover, inhibition at human SGLT-2 (human SGLT-2 in CHO cells, [14C]-AMG uptake) was half-maximal at 0.0025 µM (IC50). The 50% inhibitory concentration (IC50) on human SGLT-1 turned out to be 17.2 µM.

`OC[C@H]1O[C@@H](c2ccc(Cl)c(Cc3ccc(O[C@@H]4C[C@@H]5C[C@@H]5C4)cc3)c2)[C@H](O)[C@@H](O)[C@@H]1O` [Compound represented by formula (III), (2S,3R,4R,5S,6R)-2-(3-(4-(((1R,3r,5S)-bicyclo[3.1.0]hexan-3-yl)oxy)benzyl)-4-chlorophenyl)-6-(hydroxymethyl)tetrahydro-2H-pyran-3,4,5-triol] gave a Selectivity at human SGLT-2 of 392.77. This compound registered an IC50 on human SGLT-1 of 3.08 µM.

Compound `OC[C@H]1O[C@H](c2ccc(Cl)c(Cc3ccc(O[C@H]4C[C@@H]5C[C@@H]5C4)cc3)c2)[C@H](O)[C@@H](O)[C@@H]1O` [Compound represented by formula (IV), (2R,3R,4R,5S,6R)-2-(3-(4-(((1R,3s,5S)-bicyclo[3.1.0]hexan-3-yl)oxy)benzyl)-4-chlorophenyl)-6-(hydroxymethyl)tetrahydro-2H-pyran-3,4,5-triol] came in with a Selectivity on human SGLT-2 of 100.34. This compound also had a half-inhibitory concentration (IC50) against human SGLT-1 of 111 µM.

As for `OC[C@H]1O[C@H](c2ccc(Cl)c(Cc3ccc(O[C@@H]4C[C@@H]5C[C@@H]5C4)cc3)c2)[C@H](O)[C@@H](O)[C@@H]1O` [Compound represented by formula (V), (2R,3R,4R,5S,6R)-2-(3-(4-(((1R,3r,5S)-bicyclo[3.1.0]hexan-3-yl)oxy)benzyl)-4-chlorophenyl)-6-(hydroxymethyl)tetrahydro-2H-pyran-3,4,5-triol], the Selectivity on human SGLT-2 worked out at 267.77. For the same compound, the IC50 against human SGLT-1 turned out to be 75.5 µM.
